According to patent US20150344540A1, “NOVEL GLP-1 RECEPTOR AGONISTS WITH CHOLESTEROL EFFLUX ACTIVITY” (NOVO NORDISK A/S, priority 2012, published 2015):
Read-outs that look alike come from different tables or passages of the source. Where a SMILES comes first, the peptide text is derived from it. [ ]: non-standard residue; d: D form. Aib = CC(C)(N)C(=O)O

Key:
human GLP-1 receptor = human GLP-1 receptor (Homo sapiens, UniProt P43220); assay: Functional GLP-1 receptor assay, in vitro potency (CRE luciferase; whole cells); type: cell-based
[1] = system: Mouse monocyte/macrophage cell line, RAW 264.7; assay: Cholesterol efflux assay (3H-cholesterol, macrophage cell line); type: cell-based; settings: RAW 264.7, 4 hrs incubation, 0.1% human serum albumin; for 4 h Cholesterol Efflux Emax: ABCA1-mediated efflux; for EC50: read-out: 4 h Cholesterol Efflux EC50, ABCA1-mediated efflux (CPT-cAMP induced minus non-induced)
[2] = GLP1R CRE luc 0% HSA EC50 Mean Value
[3] = GLP1R CRE luc 1% HSA EC50 Mean Value, BHK cells expressing human GLP-1 receptor, 1% HSA
[4] = BHK cells expressing human GLP-1 receptor, 0% HSA, read-out: GLP1R CRE luc 0% HSA EC50 Mean Value

Chain of human GLP-1 receptor (P43220 24-463): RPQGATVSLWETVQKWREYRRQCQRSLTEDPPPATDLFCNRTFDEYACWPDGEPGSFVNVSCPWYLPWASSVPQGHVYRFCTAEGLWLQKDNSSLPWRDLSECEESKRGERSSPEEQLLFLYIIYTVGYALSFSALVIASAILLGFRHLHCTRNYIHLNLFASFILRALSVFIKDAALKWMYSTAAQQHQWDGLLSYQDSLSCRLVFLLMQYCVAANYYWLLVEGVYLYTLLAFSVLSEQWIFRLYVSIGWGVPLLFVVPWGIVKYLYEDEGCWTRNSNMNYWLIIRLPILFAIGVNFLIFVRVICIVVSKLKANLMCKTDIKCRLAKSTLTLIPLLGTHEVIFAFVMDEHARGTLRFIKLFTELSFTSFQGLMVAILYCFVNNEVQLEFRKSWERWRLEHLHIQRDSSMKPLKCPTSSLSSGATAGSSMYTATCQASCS

EC50 (human GLP-1 receptor; [3]) [pM]	EC50 (human GLP-1 receptor; [4]) [pM]	Compound	EC50 (human GLP-1 receptor; [2]) [pM]	4 h Cholesterol Efflux Emax [1] [%]	EC50 [1] [pM]	EC50 (human GLP-1 receptor; GLP1R CRE luc 1% HSA EC50 Mean Value) [pM]
		CC[C@H](C)[C@H](NC(=O)[C@H](Cc1ccccc1)NC(=O)[C@H](CCC(=O)O)NC(=O)[C@H](CCCCN)NC(=O)[C@@H](NC(=O)[C@H](C)NC(=O)[C@H](CCC(=O)O)NC(=O)CNC(=O)[C@H](CCC(=O)O)NC(=O)[C@H](CC(C)C)NC(=O)[C@H](Cc1ccc(O)cc1)NC(=O)[C@H](CO)NC(=O)[C@H](CO)NC(=O)[C@@H](NC(=O)[C@H](CC(=O)O)NC(=O)[C@H](CO)NC(=O)[C@@H](NC(=O)[C@H](Cc1ccccc1)NC(=O)[C@@H](NC(=O)CNC(=O)[C@H](CCC(=O)O)NC(=O)C(C)(C)NC(=O)[C@@H](N)Cc1c[nH]cn1)[C@@H](C)O)[C@@H](C)O)C(C)C)C(C)C)C(=O)N[C@@H](C)C(=O)N[C@@H](Cc1c[nH]c2ccccc12)C(=O)N[C@@H](CC(C)C)C(=O)N[C@H](C(=O)N[C@@H](CCC(=O)O)C(=O)N[C@@H](CCCCN)C(=O)N[C@H](C(=O)N[C@@H](CCCCN)C(=O)N[C@@H](CCC(=O)O)C(=O)N[C@H](C(=O)N[C@@H](CC(C)C)C(N)=O)C(C)C)C(C)C)C(C)C [Compound 120, [Aib8,Glu23,Val25,Glu34,Lys35,Val36,Lys37]-GLP-1-(7-37)-peptidyl-Glu-Val-Leu amide] (H-H[Aib]EGTFTSDVSSYLEGEAVKEFIAWLVEKVKEVL-NH2; N-terminus assumed)	198	142	380000	
118		CC[C@H](C)[C@H](NC(=O)[C@H](Cc1ccccc1)NC(=O)[C@H](CCC(=O)O)NC(=O)[C@H](CCCNC(=N)N)NC(=O)[C@@H](NC(=O)[C@H](C)NC(=O)[C@H](CCC(=O)O)NC(=O)CNC(=O)[C@H](CCC(=O)O)NC(=O)[C@H](CC(C)C)NC(=O)[C@H](Cc1ccc(O)cc1)NC(=O)[C@H](CO)NC(=O)[C@H](CO)NC(=O)[C@@H](NC(=O)[C@H](CC(=O)O)NC(=O)[C@H](CO)NC(=O)[C@@H](NC(=O)[C@H](Cc1ccccc1)NC(=O)[C@@H](NC(=O)CNC(=O)[C@H](CCC(=O)O)NC(=O)C(C)(C)NC(=O)[C@@H](N)Cc1c[nH]cn1)[C@@H](C)O)[C@@H](C)O)C(C)C)C(C)C)C(=O)N[C@@H](C)C(=O)N[C@@H](Cc1c[nH]c2ccccc12)C(=O)N[C@@H](CC(C)C)C(=O)N[C@H](C(=O)N[C@@H](CCC(=O)O)C(=O)N[C@@H](CCCNC(=N)N)C(=O)N[C@H](C(=O)N[C@@H](CCCNC(=N)N)C(=O)N[C@@H](CCC(=O)O)C(=O)N[C@@H](Cc1ccccc1)C(=O)N[C@@H](CC(C)C)C(=O)N[C@@H](CCCCN)C(N)=O)C(C)C)C(C)C [Compound 91] (H-H[Aib]EGTFTSDVSSYLEGEAVREFIAWLVERVREFLK-NH2)		103		
39	163	CC[C@H](C)[C@H](NC(=O)[C@H](Cc1ccccc1)NC(=O)[C@H](CCC(=O)O)NC(=O)[C@H](CCCCN)NC(=O)[C@@H](NC(=O)[C@H](C)NC(=O)[C@H](CCC(=O)O)NC(=O)CNC(=O)[C@H](CCC(=O)O)NC(=O)[C@H](CC(C)C)NC(=O)[C@H](Cc1ccc(O)cc1)NC(=O)[C@H](CO)NC(=O)[C@H](CO)NC(=O)[C@@H](NC(=O)[C@H](CC(=O)O)NC(=O)[C@H](CO)NC(=O)[C@@H](NC(=O)[C@H](Cc1ccccc1)NC(=O)[C@@H](NC(=O)CNC(=O)[C@H](CCC(=O)O)NC(=O)C(C)(C)NC(=O)[C@@H](N)Cc1c[nH]cn1)[C@@H](C)O)[C@@H](C)O)C(C)C)C(C)C)C(=O)N[C@@H](CCC(=O)O)C(=O)N[C@@H](Cc1c[nH]c2ccccc12)C(=O)N[C@@H](CC(C)C)C(=O)N[C@H](C(=O)N[C@@H](CCC(=O)O)C(=O)N[C@@H](CCCCN)C(=O)N[C@H](C(=O)N[C@@H](CCCCN)C(=O)N[C@@H](CCC(=O)O)C(=O)N[C@@H](CCCCN)C(=O)N[C@@H](CC(C)C)C(N)=O)C(C)C)C(C)C [Compound 112] (H-H[Aib]EGTFTSDVSSYLEGEAVKEFIEWLVEKVKEKL-NH2)		119		
12	45	H-HAEGTFTSDVSSYLEGQAAKEFIAWLVEKVKEFLDK-OH [Compound 129, [Glu34,Lys35,Val36,Lys37]-GLP-1-(7-37)-peptidyl-Glu-Phe-Leu-Asp-Lys]		111		
11	34	H-HAEGTFTSDVSSYLEGQAAKEFIAWLVEKVKEFLER-OH [Compound 130, [Glu34,Lys35,Val36,Lys37]-GLP-1-(7-37)-peptidyl-Glu-Phe-Leu-Glu-Arg]		125		
39	101	CC[C@H](C)[C@H](NC(=O)[C@H](Cc1ccccc1)NC(=O)[C@H](CCC(=O)O)NC(=O)[C@H](CCCCN)NC(=O)[C@@H](NC(=O)[C@H](C)NC(=O)[C@H](CCC(=O)O)NC(=O)CNC(=O)[C@H](CCC(=O)O)NC(=O)[C@H](CC(C)C)NC(=O)[C@H](Cc1ccc(O)cc1)NC(=O)[C@H](CO)NC(=O)[C@H](CO)NC(=O)[C@@H](NC(=O)[C@H](CC(=O)O)NC(=O)[C@H](CO)NC(=O)[C@@H](NC(=O)[C@H](Cc1ccccc1)NC(=O)[C@@H](NC(=O)CNC(=O)[C@H](CCC(=O)O)NC(=O)C(C)(C)NC(=O)[C@@H](N)Cc1c[nH]cn1)[C@@H](C)O)[C@@H](C)O)C(C)C)C(C)C)C(=O)N[C@@H](C)C(=O)N[C@@H](Cc1c[nH]c2ccccc12)C(=O)N[C@@H](CC(C)C)C(=O)N[C@H](C(=O)N[C@@H](CCC(=O)O)C(=O)N[C@@H](CCCCN)C(=O)NC(C)(C)C(=O)N[C@@H](CCCCN)C(=O)N[C@@H](CCC(=O)O)C(=O)N[C@@H](Cc1ccccc1)C(=O)N[C@@H](CC(C)C)C(=O)N[C@@H](CCC(=O)O)C(N)=O)C(C)C [Compound 66, [Aib8,Glu23,Val25,Glu34,Lys35,Aib36,Lys37]-GLP-1-(7-37)-peptidyl-Glu-Phe-Leu-Glu amide]		102		
		CC(C)C[C@H](NC(=O)[C@H](Cc1ccccc1)NC(=O)[C@H](CCC(=O)O)NC(=O)[C@H](CCCCN)NC(=O)C(C)(C)NC(=O)[C@H](CCCCN)NC(=O)[C@H](CCC(=O)O)NC(=O)[C@@H](NC(=O)[C@H](CC(C)C)NC(=O)[C@H](Cc1c[nH]c2ccccc12)NC(=O)[C@H](C)NC(=O)[C@@H](NC(=O)[C@H](Cc1ccccc1)NC(=O)[C@H](CCC(=O)O)NC(=O)[C@H](CCCCN)NC(=O)[C@@H](NC(=O)[C@H](C)NC(=O)[C@H](CCC(=O)O)NC(=O)CNC(=O)[C@H](CCC(=O)O)NC(=O)[C@H](CC(C)C)NC(=O)[C@H](Cc1ccc(O)cc1)NC(=O)[C@H](CO)NC(=O)[C@H](CO)NC(=O)[C@@H](NC(=O)[C@H](CC(=O)O)NC(=O)[C@H](CO)NC(=O)[C@@H](NC(=O)[C@H](Cc1ccccc1)NC(=O)[C@@H](NC(=O)CNC(=O)[C@H](CCC(=O)O)NC(=O)C(C)(C)NC(=O)[C@@H](N)Cc1c[nH]cn1)[C@@H](C)O)[C@@H](C)O)C(C)C)C(C)C)C(C)C)C(C)C)C(N)=O [Compound 82, [Aib8,Glu23,Val25,Val29,Glu34,Lys35,Aib36,Lys37]-GLP-1-(7-37)-peptidyl-Glu-Phe-Leu amide] (H-H[Aib]EGTFTSDVSSYLEGEAVKEFVAWLVEK[Aib]KEFL-NH2; N-terminus assumed)	111	120	690000	36
11	30	H-HAEGTFTSDVSSYLEGQAAKEFIAWLVEKVKEFLEK-OH [Compound 124, [Glu34,Lys35,Val36,Lys37]-GLP-1-(7-37)-peptidyl-Glu-Phe-Leu-Glu-Lys]		146		
20		CC[C@H](C)[C@H](NC(=O)[C@H](Cc1ccccc1)NC(=O)[C@H](CCC(=O)O)NC(=O)[C@H](CCCCN)NC(=O)[C@@H](NC(=O)[C@H](C)NC(=O)[C@H](CCC(=O)O)NC(=O)CNC(=O)[C@H](CCC(=O)O)NC(=O)[C@H](CC(C)C)NC(=O)[C@H](Cc1ccc(O)cc1)NC(=O)[C@H](CO)NC(=O)[C@H](CO)NC(=O)[C@@H](NC(=O)[C@H](CC(=O)O)NC(=O)[C@H](CO)NC(=O)[C@@H](NC(=O)[C@H](Cc1ccccc1)NC(=O)[C@@H](NC(=O)CNC(=O)[C@H](CCC(=O)O)NC(=O)C(C)(C)NC(=O)[C@@H](N)Cc1c[nH]cn1)[C@@H](C)O)[C@@H](C)O)C(C)C)C(C)C)C(=O)N[C@@H](C)C(=O)N[C@@H](Cc1c[nH]cn1)C(=O)N[C@@H](CC(C)C)C(=O)N[C@H](C(=O)N[C@@H](CCC(=O)O)C(=O)N[C@@H](CCCCN)C(=O)NC(C)(C)C(=O)N[C@@H](CCCCN)C(=O)N[C@@H](CCC(=O)O)C(=O)N[C@@H](Cc1ccccc1)C(=O)N[C@@H](CC(C)C)C(N)=O)C(C)C [Compound 17, [Aib8,Glu23,Val25,His31,Glu34,Lys35,Aib36,Lys37]-GLP-1-(7-37)-peptidyl-Glu-Phe-Leu amide] (H-H[Aib]EGTFTSDVSSYLEGEAVKEFIAHLVEK[Aib]KEFL-NH2)		102		
31		H-HAEGTFTSDVSSYLEGEAVKEFIAWLVEKVKEFLEK-OH [Compound 123, [Glu23,Val25,Glu34,Lys35,Val36,Lys37]-GLP-1-(7-37)-peptidyl-Glu-Phe-Leu-Glu-Lys]		111		
